Experimental data: ChEMBL document CHEMBL1201862, “PubChem BioAssay data set” (2004)
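Cells were grown in 96-well plates and exposed to each compound for 48 hours at five concentrations; endpoints were interpolated linearly between bracketing concentrations, or set to the highest concentration if not reached. The concentration for 50% growth inhibition is given as GI50.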 Calls of active or inactive are those of the source. Cut-off read from the data, not from the text of the source: active = GI50 up to about 1.1 µM and inactive = higher.

Assays:
Assay in all cases: NCI anticancer screen, dose series, 48 h
HCT-116 = test system: HCT-116
NCI-H226 = test system: NCI-H226
SNB-75 = test system: SNB-75
M14 = test system: M14
Malme-3M = test system: Malme-3M
EKVX = test system: EKVX
HL-60 = test system: HL-60
KM12 = test system: KM12
NCI/ADR-RES = test system: NCI/ADR-RES
DU-145 = test system: DU-145
UACC-62 = test system: UACC-62
ACHN = test system: ACHN
A498 = test system: A498
SF-268 = test system: SF-268
K562 = test system: K562
A549 = test system: A549
RPMI-8226 = test system: RPMI-8226
OVCAR-4 = test system: OVCAR-4
786-0 = test system: 786-0
HCC 2998 = test system: HCC 2998

Compound	GI50 (HCT-116)	GI50 (NCI-H226)	GI50 (SNB-75)	GI50 (M14)	GI50 (Malme-3M)	GI50 (EKVX)	GI50 (HL-60)	GI50 (KM12)	GI50 (NCI/ADR-RES)	GI50 (DU-145)	GI50 (UACC-62)	GI50 (ACHN)	GI50 (A498)	GI50 (SF-268)	GI50 (K562)	GI50 (A549)	GI50 (RPMI-8226)	GI50 (OVCAR-4)	GI50 (786-0)	GI50 (HCC 2998)
O=C/C(=C(/Br)I)c1ccccc1	1.51 µM (inactive)	9.64 µM (inactive)	5.45 µM (inactive)	1.8 µM (inactive)	1.92 µM (inactive)	15.3 µM (inactive)	0.352 µM (active)	6.61 µM (inactive)	3.95 µM (inactive)	15.7 µM (inactive)	6.7 µM (inactive)	3.1 µM (inactive)	18.6 µM (inactive)	2.3 µM (inactive)	0.624 µM (active)	22.9 µM (inactive)	2.25 µM (inactive)	3.86 µM (inactive)	2.54 µM (inactive)	
COc1cc(/C=C2/SC(c3ccccc3)N(c3cccc(NC(C)=O)c3)C2=O)cc(OC)c1OC (stereo not drawn)	30.2 µM (inactive)	62.5 µM (inactive)		27.7 µM (inactive)	28.8 µM (inactive)	50.7 µM (inactive)	33.7 µM (inactive)	39.1 µM (inactive)	40.7 µM (inactive)	92.3 µM (inactive)	50.5 µM (inactive)	> 100 µM (inactive)	> 100 µM (inactive)	67.9 µM (inactive)	35.6 µM (inactive)	47.4 µM (inactive)	30.3 µM (inactive)	66.2 µM (inactive)	81.8 µM (inactive)	> 100 µM (inactive)
CSc1ncnc2c1ncn2C1CC(Oc2ccc(C)cc2)C(COc2ccc(C)cc2)O1 (stereo not drawn)	> 100 µM (inactive)	> 100 µM (inactive)	> 100 µM (inactive)	> 100 µM (inactive)	> 100 µM (inactive)	> 100 µM (inactive)	> 100 µM (inactive)	> 100 µM (inactive)	> 100 µM (inactive)	> 100 µM (inactive)	> 100 µM (inactive)	> 100 µM (inactive)	> 100 µM (inactive)	> 100 µM (inactive)		> 100 µM (inactive)	9.66 µM (inactive)	> 100 µM (inactive)	> 100 µM (inactive)	> 100 µM (inactive)
CC12CC3CC/C(=N\O)C(C1)C3(N1CCOCC1)C/C2=N/O (stereo not drawn)	> 100 µM (inactive)	> 100 µM (inactive)	25.1 µM (inactive)	> 100 µM (inactive)	> 100 µM (inactive)	> 100 µM (inactive)	49.8 µM (inactive)	> 100 µM (inactive)	> 100 µM (inactive)	> 100 µM (inactive)	> 100 µM (inactive)	> 100 µM (inactive)	> 100 µM (inactive)	> 100 µM (inactive)	> 100 µM (inactive)	> 100 µM (inactive)		> 100 µM (inactive)	> 100 µM (inactive)	> 100 µM (inactive)
COP(=O)(OC)C(NC=O)P(=O)(OC)OC	> 100 µM (inactive)	> 100 µM (inactive)		> 100 µM (inactive)	> 100 µM (inactive)	> 100 µM (inactive)	> 100 µM (inactive)		> 100 µM (inactive)	> 100 µM (inactive)	> 100 µM (inactive)	> 100 µM (inactive)	> 100 µM (inactive)	> 100 µM (inactive)	> 100 µM (inactive)	> 100 µM (inactive)	> 100 µM (inactive)	> 100 µM (inactive)	> 100 µM (inactive)	> 100 µM (inactive)
c1ccc(CN2CCC(Nc3ccccc3)(c3nnnn3Cc3ccccc3)CC2)cc1	20.1 µM (inactive)	42.7 µM (inactive)	22.7 µM (inactive)	16.1 µM (inactive)	18.5 µM (inactive)	23.8 µM (inactive)	11.5 µM (inactive)	13.3 µM (inactive)	24.5 µM (inactive)	38.4 µM (inactive)	23.6 µM (inactive)	35 µM (inactive)	17.2 µM (inactive)	> 100 µM (inactive)		32.2 µM (inactive)	12.9 µM (inactive)	29.6 µM (inactive)	22.4 µM (inactive)	3.01 µM (inactive)
CC[C@H]1C=CCC[C@@]2(C[C@@H]3CC[C@H]4[C@@H](C(=O)OCCCCCCCCCCCCCCCC(=O)N(CCCNC(C)=O)C[C@H](CCNC(C)=O)OC(C)=O)[C@@]5(CCC[C@@H](C)O5)NC(=[N+]34)N2)O1	1.58 µM (inactive)	1.41 µM (inactive)		1.73 µM (inactive)	1.54 µM (inactive)	0.861 µM (active)	1.14 µM (inactive)	1.38 µM (inactive)	> 10 µM (inactive)	1.57 µM (inactive)	1.85 µM (inactive)	1.89 µM (inactive)	1.83 µM (inactive)	1.66 µM (inactive)	0.708 µM (active)	1.88 µM (inactive)	0.227 µM (active)	1.4 µM (inactive)	1.98 µM (inactive)	1.26 µM (inactive)
CCOP(=O)(O)C(C)(C)NC	> 100 µM (inactive)	> 100 µM (inactive)		> 100 µM (inactive)	> 100 µM (inactive)	> 100 µM (inactive)	> 100 µM (inactive)	> 100 µM (inactive)	> 100 µM (inactive)	> 100 µM (inactive)	> 100 µM (inactive)	> 100 µM (inactive)	> 100 µM (inactive)	> 100 µM (inactive)	> 100 µM (inactive)	> 100 µM (inactive)	> 100 µM (inactive)	> 100 µM (inactive)	> 100 µM (inactive)	> 100 µM (inactive)
COC(=O)c1nc2n(n1)-c1ccccc1C(=O)N(Cc1ccccc1)C2	> 100 µM (inactive)	> 100 µM (inactive)		> 100 µM (inactive)	> 100 µM (inactive)	> 100 µM (inactive)	> 100 µM (inactive)	> 100 µM (inactive)	> 100 µM (inactive)	> 100 µM (inactive)	> 100 µM (inactive)	> 100 µM (inactive)	> 100 µM (inactive)	> 100 µM (inactive)	> 100 µM (inactive)	> 100 µM (inactive)	> 100 µM (inactive)	> 100 µM (inactive)	> 100 µM (inactive)	40.4 µM (inactive)
N#Cc1c(O)nc2[nH]nc(/N=N\c3c(O)ccc4ccccc34)c2c1-c1ccc(Cl)cc1	0.114 µM (active)	0.4 µM (active)		0.188 µM (active)	0.143 µM (active)	0.219 µM (active)	0.0713 µM (active)	0.403 µM (active)	0.0975 µM (active)	0.17 µM (active)	0.103 µM (active)	0.296 µM (active)	0.117 µM (active)	0.0682 µM (active)	1.63 µM (inactive)	0.312 µM (active)	1.56 µM (inactive)	0.241 µM (active)	0.0689 µM (active)	0.359 µM (active)
CC(C)=CCNc1ncnc2[nH]cnc12	> 100 µM (inactive)	90.2 µM (inactive)	> 100 µM (inactive)	> 100 µM (inactive)	> 100 µM (inactive)	> 100 µM (inactive)	> 100 µM (inactive)	99.8 µM (inactive)	> 100 µM (inactive)	> 100 µM (inactive)	88.5 µM (inactive)	> 100 µM (inactive)	> 100 µM (inactive)	> 100 µM (inactive)	> 100 µM (inactive)	> 100 µM (inactive)	> 100 µM (inactive)	> 100 µM (inactive)	> 100 µM (inactive)	
